These results are taken from PMC10157890, “Lysine Deacetylase Substrate Selectivity: Distinct Interaction Surfaces Drive Positive and Negative Selection for Residues Following Acetyllysine” (Biochemistry, 2023).

In the first assay the target is T1, full-length human KDAC6 (Homo sapiens, UniProt Q9UBN7).
T1 construct: A pFastbac1 construct containing full-length human KDAC6 (UniProtKB Q9UBN7) with a C-terminal His6 tag; His6 (C); made in house; host or cells: ExpiSf9 insect cells (baculovirus)
T1 sequence (Q9UBN7 1-1215): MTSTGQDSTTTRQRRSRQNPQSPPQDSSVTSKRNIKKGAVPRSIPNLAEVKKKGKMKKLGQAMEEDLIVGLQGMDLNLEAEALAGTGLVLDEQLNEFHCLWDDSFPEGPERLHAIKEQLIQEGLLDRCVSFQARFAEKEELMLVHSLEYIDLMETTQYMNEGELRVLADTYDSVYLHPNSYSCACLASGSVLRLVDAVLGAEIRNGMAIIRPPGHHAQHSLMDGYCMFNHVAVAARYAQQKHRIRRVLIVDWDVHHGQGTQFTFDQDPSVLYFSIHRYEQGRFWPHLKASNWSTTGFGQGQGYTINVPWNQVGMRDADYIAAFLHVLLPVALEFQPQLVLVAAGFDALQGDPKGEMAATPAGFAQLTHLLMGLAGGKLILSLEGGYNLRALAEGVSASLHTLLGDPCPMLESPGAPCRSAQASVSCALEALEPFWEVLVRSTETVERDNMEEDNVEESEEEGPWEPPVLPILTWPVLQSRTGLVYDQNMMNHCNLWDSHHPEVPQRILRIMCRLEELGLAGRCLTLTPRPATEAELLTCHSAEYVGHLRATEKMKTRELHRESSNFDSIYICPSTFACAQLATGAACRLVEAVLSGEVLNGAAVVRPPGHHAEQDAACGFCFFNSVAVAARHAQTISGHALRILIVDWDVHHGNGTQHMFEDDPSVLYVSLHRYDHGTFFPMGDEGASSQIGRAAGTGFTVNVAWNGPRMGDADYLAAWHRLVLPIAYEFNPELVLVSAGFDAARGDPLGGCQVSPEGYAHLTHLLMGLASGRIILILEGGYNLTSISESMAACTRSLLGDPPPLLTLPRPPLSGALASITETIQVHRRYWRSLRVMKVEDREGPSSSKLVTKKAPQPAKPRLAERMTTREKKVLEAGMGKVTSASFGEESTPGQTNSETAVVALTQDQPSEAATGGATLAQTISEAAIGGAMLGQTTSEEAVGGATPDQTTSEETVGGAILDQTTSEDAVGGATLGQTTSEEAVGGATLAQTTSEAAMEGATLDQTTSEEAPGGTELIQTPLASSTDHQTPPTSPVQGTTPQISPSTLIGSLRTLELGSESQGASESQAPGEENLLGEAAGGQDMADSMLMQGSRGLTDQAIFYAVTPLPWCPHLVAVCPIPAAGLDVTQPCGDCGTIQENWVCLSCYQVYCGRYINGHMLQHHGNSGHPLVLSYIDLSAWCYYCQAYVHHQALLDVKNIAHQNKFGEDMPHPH
Put plainly: Activity of KDAC6 with putative substrate peptides (verification of substrate preferences). In kind it is biochemical. To be noted: endpoint, 100 μM peptide, 50–200 nM KDAC, 25 °C, pH 7.6, 15–60 min, buffer also containing 100 mM KCl; average ± SD; SD. The protocol: (§1) Peptide substrates were synthesized to >95% purity (GenScript) with N-terminal acetylation and C-terminal amidation. For endpoint experiments, 100 μM peptide substrates were reacted with 50–200 nM KDAC at 25 °C at pH 7.6 for 15–60 min. Deacetylation was measured using a fluorescamine-based assay that was previously described in detail.[18] Reported raw activity for each enzyme–substrate pair is the average and standard deviation for n ≥ 4 unless otherwise noted. Normalized activity was calculated by defining the activity of each KDAC with the FRK^acWR peptide equal to 1. Statistical significance was determined by calculating p values using two-tailed t-tests, assuming similar variance. The significance threshold was set at p ≤ 0.01 with the Bonferroni correction for multiple testing. Kinetic parameters were determined for a subset of enzyme–substrate pairs. In these experiments, 50–200 nM KDAC was reacted with ≥5 substrate concentrations from 10 to 2500 nM and ≥3 timepoints at intervals of 3–20 min were collected for each substrate concentration. Deacetylation was measured using the same method as the endpoint experiments, and KM and kcat were calculated from the observed activity of each reaction as previously described.[18] Activity assays with peptides for verification of substrate preferences were performed as for endpoint experiments, except in a buffer also containing 100 mM KCl. Statistical analysis of the correlation of the presence of particular substrate residues with activity was performed using Fisher’s exact test with a significance threshold of p ≤ 0.05.
In contrast with the peptides tested thus far, which were all derivatives of a single substrate, these panels consisted of peptides derived from human proteins in which the lysine residue is known to be acetylated in cells.[3],[5],[42],[50]−[72] For each enzyme, peptides were included either because they contained an acetyllysine that has been identified as a putative substrate of the KDAC from published cellular studies and/or because the peptide contained a residue that appeared to drive KDAC activity in our analysis. For KDAC6, we observed that of the set of peptides that were tested, six contained tryptophan or tyrosine directly after the acetyllysine. Remarkably, all of these peptides appeared in the top seven most reactive substrates tested (Table 2). Assuming that phenylalanine would behave similarly to tryptophan and tyrosine, we determined that there was a statistically significant correlation between whether or not a peptide was deacetylated by KDAC6 and the presence of tyrosine, tryptophan, or phenylalanine in the +1 position (p = 0.011). […] Thus, our conclusion that the presence of these aromatic residues in the +1 position relative to the acetyllysine is a major factor promoting KDAC6 activity has predictive utility and provides some understanding of the underlying mechanistic basis.
Take “IIDK^acSQL [acetyllysine peptide from serine/threonine-protein kinase SIK2 (Q9H0K1)]”: the “specific activity, KDAC6 with putative substrates” value came out at 0.011 ± 0.009 s^–1.

In the case of “TDGK^acVFQ [acetyllysine peptide from 60S ribosomal protein L24 (P83731)]”, the “specific activity, KDAC6 with putative substrates” value was determined as 0.026 ± 0.024 s^–1.

With “QATK^acDAG [acetyllysine peptide from heat shock 70 kDa protein 1A/1B (P0DMV8/P0DMV9)]”, the “specific activity, KDAC6 with putative substrates” value is reported as 0.022 ± 0.006 s^–1.

“YFSK^acHN [acetyllysine peptide from peroxiredoxin-2 (P32119), C-terminus, not amidated]”: the “specific activity, KDAC6 with putative substrates” value is 0.010 ± 0.006 s^–1.

Consider “GAGK^acHVP [acetyllysine peptide from tubulin α-1A chain (P68369)]”, for which the “specific activity, KDAC6 with putative substrates” value is reported as 0.06 ± 0.03 s^–1.

Take “LSGK^acGNP [acetyllysine peptide from catenin β-1 (P35222)]”: the “specific activity, KDAC6 with putative substrates” value is reported as 0.042 ± 0.009 s^–1.

For the substance “LDHK^acFDL [acetyllysine peptide from tubulin α-1A chain (P68369)]”, the “specific activity, KDAC6 with putative substrates” value is recorded as 0.009 ± 0.007 s^–1.

Still in this assay, the particulars now being: endpoint, 100 μM peptide, buffer also containing 100 mM KCl; limit of reliable detection 0.0013 s^–1.
Take SVRK^acGIM: the “specific activity, KDAC6 with putative substrates (no activity above limit)” value was “– (– indicates no activity above the limit of reliable detection (0.0013 s^–1))”.

With “DLAK^acVQR [acetyllysine peptide from tubulin α-1A chain (P68369)]”, the “specific activity, KDAC6 with putative substrates (no activity above limit)” value was “– (– indicates no activity above the limit of reliable detection (0.0013 s^–1))”.

In the case of “TLSK^acLHE [acetyllysine peptide from protein diaphanous homologue 3 (Q9NSV4)]”, the “specific activity, KDAC6 with putative substrates (no activity above limit)” value is reported as “– (– indicates no activity above the limit of reliable detection (0.0013 s^–1))”.

With “VLEK^acLGE [acetyllysine peptide from serine/threonine-protein kinase 4 (Q13043)]”, the “specific activity, KDAC6 with putative substrates (no activity above limit)” value was “– (– indicates no activity above the limit of reliable detection (0.0013 s^–1))”.

On to “PEAK^acSLL [acetyllysine peptide from RAC-α serine/threonine-protein kinase (P31749)]”, for which the “specific activity, KDAC6 with putative substrates (no activity above limit)” value is recorded as “– (– indicates no activity above the limit of reliable detection (0.0013 s^–1))”.

Consider “PSPK^acVSD [acetyllysine peptide from tubulin β-3 chain (Q13509)]”, for which the “specific activity, KDAC6 with putative substrates (no activity above limit)” value is “– (– indicates no activity above the limit of reliable detection (0.0013 s^–1))”.

Take “LISK^acIRE [acetyllysine peptide from tubulin β (Q13509)]”: the “specific activity, KDAC6 with putative substrates (no activity above limit)” value is recorded as “– (– indicates no activity above the limit of reliable detection (0.0013 s^–1))”.

“FFHK^acVNE [acetyllysine peptide from Mitofusin-1 (Q8IWA4)]”: the “specific activity, KDAC6 with putative substrates (no activity above limit)” value is reported as “– (– indicates no activity above the limit of reliable detection (0.0013 s^–1))”.

As for “PDRK^acPFP [acetyllysine peptide from E3 SUMO-protein ligase EGR2 (P11161)]”, the “specific activity, KDAC6 with putative substrates (no activity above limit)” value is recorded as “– (– indicates no activity above the limit of reliable detection (0.0013 s^–1))”.

In another assay the target is T2, Full-length human KDAC8 (Homo sapiens, UniProt Q9BY41).
T2 construct: Full-length human KDAC8 (UniProtKB Q9BY41) was recombinantly expressed fused to a C-terminal His6 tag; TEV protease cleavage site (C); His6 (C); made in house; host or cells: Escherichia coli
T2 sequence (Q9BY41 1-377): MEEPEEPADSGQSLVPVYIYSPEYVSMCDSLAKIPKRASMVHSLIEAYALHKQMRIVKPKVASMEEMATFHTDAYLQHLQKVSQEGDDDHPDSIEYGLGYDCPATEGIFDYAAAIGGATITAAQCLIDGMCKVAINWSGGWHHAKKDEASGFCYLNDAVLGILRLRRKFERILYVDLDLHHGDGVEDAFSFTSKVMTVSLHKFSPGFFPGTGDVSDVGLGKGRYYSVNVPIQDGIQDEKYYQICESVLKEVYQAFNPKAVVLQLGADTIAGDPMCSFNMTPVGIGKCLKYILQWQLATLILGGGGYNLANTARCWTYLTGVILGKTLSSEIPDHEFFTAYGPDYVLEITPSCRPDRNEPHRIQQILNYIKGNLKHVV
As to the kind of experiment: Activity of KDAC8 with putative substrate peptides (verification of substrate preferences). In kind it is biochemical. To be noted: endpoint, 100 μM peptide, 50–200 nM KDAC, 25 °C, pH 7.6, 15–60 min, buffer also containing 100 mM KCl; average ± SD; SD. The protocol: as §1
We performed a similar experiment for KDAC8, this time using substrates that have been described as potential KDAC8 substrates from cell-based studies or which contained residues in the +1 and/or +2 positions that were identified to enhance activity of KDAC8. […] In addition, we also considered phenylalanine, as we did for KDAC6. Here, we looked at the correlation between peptides having any of these features and activity. While the result was less striking than for KDAC6, there was still a positive correlation between the presence of the identified residues and activity (Table 3; p = 0.048). Although we have identified only a portion of the interactions that likely contribute to substrate selectivity for these enzymes, these interactions correlate with a statistically significant increase in activity with peptides from potential biological substrates in an unbiased background of residues in other positions.
As for “LGGK^acQRA [acetyllysine peptide from retinoic acid-induced protein 1 (Q7Z5J4)]”, the “specific activity, KDAC8 with putative substrates” value was 0.0006 ± 0.0004 s^–1.

“RFTK^acCLR [acetyllysine peptide from steroid hormone receptor ERR1 (P11474)]”: the “specific activity, KDAC8 with putative substrates” value is reported as 0.0030 ± 0.0016 s^–1.

For the substance “RMFK^acQFN [acetyllysine peptide from transcription intermediary factor 1-β (Q13263)]”, the “specific activity, KDAC8 with putative substrates” value was determined as 0.015 ± 0.014 s^–1.

In the case of “RIPK^acEQW [acetyllysine peptide from ATP-dependent 6-phosphofructokinase, platelet type (Q01813)]”, the “specific activity, KDAC8 with putative substrates” value was 0.0031 ± 0.0015 s^–1.

In the case of “PLWK^acGIG [acetyllysine peptide from regulator of nonsense transcripts 1 (Q92900)]”, the “specific activity, KDAC8 with putative substrates” value is listed as 0.0035 ± 0.0021 s^–1.

The assay is the same for the next values; noted with them: endpoint, 100 μM peptide, buffer also containing 100 mM KCl; limit of reliable detection 0.0004 s^–1.
For “VGGK^acDFE [acetyllysine peptide from PDZ and LIM domain protein 1 (O00151)]”, the “specific activity, KDAC8 with putative substrates (no activity above limit)” value is given as “– (– indicates no activity above the limit of reliable detection (0.0004 s^–1))”.

On to EIGK^acTLA, for which the “specific activity, KDAC8 with putative substrates (no activity above limit)” value is listed as “– (– indicates no activity above the limit of reliable detection (0.0004 s^–1))”.

“EVGK^acLLN [acetyllysine peptide from centromere protein F (P49454)]”: the “specific activity, KDAC8 with putative substrates (no activity above limit)” value was “– (– indicates no activity above the limit of reliable detection (0.0004 s^–1))”.
